PMC12216609, “Inhibitors of eIF1A-ribosome interaction unveil uORF-dependent regulation of translation initiation and antitumor and antiviral effects” (The EMBO Journal, 2025)
Where “and” joins values, the source holds several entries; their conditions need not be identical. Equal values may be shown once. Read-outs that look alike come from different tables or passages of the source.

Assays:
[1] = target: T1, RPS10 (Homo sapiens, UniProt P46783); format: binding
T1 construct: made in house; host or cells: E. coli BL-21

[2] = test system: cap-proximal AUG GFP reporter in HEK293T cells; format: cell-based; conditions: GFP WB densitometry; 20 µM overnight; dmso 0.965946;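 further: ratio of upstream to downstream AUG initiation products on GFP Western blot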
[3] = target: NSP1 (Severe acute respiratory syndrome coronavirus 2, UniProt P0DTD1)
[4] = target: T2, eIF1A (Homo sapiens, UniProt P47813); format: binding; conditions: for fluorescence ratio, eIF1A: background-corrected, relative to DMSO or lowest 1Ai concentration, replicate columns
T2 construct: His-bdSUMO (cleaved yes); made in house; host or cells: E. coli BL-21

[5] = target: T3, eIF1A-RPS10 interaction (Homo sapiens, UniProt P46783+P47813); experiment: Split-Renilla luciferase eIF1A-RPS10 interaction screen, dose-response; format: biochemical; conditions: summary table; read-out: IC50 concentration (µM), IC50 screen
T3 construct: made in house; host or cells: E. coli BL21 (PRSFduet); unpurified lysate supernatant
Summary of the method: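 Expression at 16 °C overnight after 0.5 mM IPTG induction; sonication and centrifugation in TKE buffer; lysate supernatant checked for Renilla activity; compound testing against the eIF1A–RPS10 split-luciferase pair, including fragment-only controls.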

[6] = test system: IRF7 5'UTR firefly luciferase reporter in HEK293T cells; conditions: for Reference vs IRF7 (Final data, Fig. 1E): 1/Result, relative to DMSO; for Reference vs IRF7 (Final data, Fig. 1E) / LONG (summary - All), normalized to DMSO / SHORT (summary - All), normalized to DMSO / average ( long vs short ratio): 20 µM; for LONG (summary - All), normalized to DMSO: Long reporter; for LONG (summary - All), normalized to DMSO / SHORT (summary - All), normalized to DMSO: individual replicates, outliers excluded, DMSO = 1; for SHORT (summary - All), normalized to DMSO: Short reporter; for average ( long vs short ratio): summary - All;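 on all read-outs here: luciferase signal corrected by a co-transfected GFP reporter for transfection efficiency, read after overnight compound exposure, with Long and Short reporters differing in 5'UTR length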
[7] = read-out: IC50 (line under RPS10 binding data)
[8] = summary table, fluorescence binding assay, read-out: IC50 concentration (µM), RPS10

T2 sequence (P47813 whole entry): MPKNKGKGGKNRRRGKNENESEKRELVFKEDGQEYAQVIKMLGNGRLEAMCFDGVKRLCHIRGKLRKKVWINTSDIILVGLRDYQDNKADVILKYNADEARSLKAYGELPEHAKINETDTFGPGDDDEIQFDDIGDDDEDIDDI
T3 sequence (P47813 whole entry, one chain of several): as the sequence (P47813 whole entry) above

Compound	RPS10 fluorescence ratio to control ([1]; 1Ai conc. 0.25 uM)	RPS10 fluorescence ratio to control ([1]; 1Ai conc. 0.5 uM)	RPS10 fluorescence ratio to control ([1]; 1Ai conc. 1 uM)	RPS10 fluorescence ratio to control ([1]; 1Ai conc. 2 uM)	RPS10 fluorescence ratio to control ([1]; 1Ai conc. 4 uM)	RPS10 fluorescence ratio to control ([1]; 1Ai conc. 8 uM)	RPS10 fluorescence ratio to control ([1]; 1Ai conc. 16 uM)	RPS10 fluorescence ratio to control ([1]; 1Ai conc. 32 uM)	IC50 [1, 7]	IC50 ([1]; read-out: RPS10 IC50)	IC50 [1, 8]	US/DS ratio, average [2]	GFP reporter ratio nsp1/gfp, avg [3]	GFP reporter ratio nsp1/gfp, rep 1 [3]	gfp signal, mean of duplicate wells [3]	nsp1 signal, mean of duplicate wells [3]	ratio (nsp1/gfp) [3]	fluorescence ratio, eIF1A ([4]; 1Ai conc. 0.25 uM)	fluorescence ratio, eIF1A ([4]; 1Ai conc. 0.5 uM)	fluorescence ratio, eIF1A ([4]; 1Ai conc. 1 uM)	also measured
Cc1cc(-n2c(C)cc(-c3csc(N)n3)c2C)no1 [1Ai-6464]	0.9293	0.9332	0.9643	0.9061	0.8558	0.7733	0.6954	0.5591	6.4 µM	6.4 µM	6.4 µM	0.6968	0.5623	0.5623	2104	1183	0.562	0.9721 and 0.9575	1.01 and 0.9713	0.9857	RPS10 fluorescence ratio to control ([1]; 1Ai conc. 64 uM): 0.4769; RPS10 fluorescence ratio to control ([1]; 1Ai conc. 256 uM): 0.3869; fluorescence ratio, eIF1A ([4]; 1Ai conc. 2 uM): 0.9155; fluorescence ratio, eIF1A ([4]; 1Ai conc. 4 uM): 0.9236 and 0.8848; fluorescence ratio, eIF1A ([4]; 1Ai conc. 8 uM): 0.5527 and 0.8172; fluorescence ratio, eIF1A ([4]; 1Ai conc. 16 uM): 0.5305 and 0.7368; fluorescence ratio, eIF1A ([4]; 1Ai conc. 32 uM): 0.4838 and 0.639; fluorescence ratio, eIF1A ([4]; 1Ai conc. 64 uM): 0.4268 and 0.4798; fluorescence ratio, eIF1A ([4]; 1Ai conc. 256 uM): 0.2524 and 0.2775; IC50 ([4]; eIF1A, from the titration data, read-out: IC50 (eIF1A titration block)): 21.2 µM; IC50 ([4]; summary table, fluorescence binding assay, read-out: IC50 concentration (µM), WT eIF1A): 21.2 µM; IC50 [5]: 13 µM; Reference vs IRF7 (Final data, Fig. 1E) [6]: 2.824; LONG (summary - All), normalized to DMSO [6]: 0.0351 and 0.33 and 0.45 and 0.34; SHORT (summary - All), normalized to DMSO [6]: 0.16 and 1.35 and 0.67 and 1.06; average ( long vs short ratio) [6]: 0.354
Cn1c(=O)c2ccccc2n2c(CNC(c3ccc4c(c3)CCC4)c3cccs3)nnc12 (centres unmarked) [1Ai-7688]	1.264	2.089	1.116	1.353	1.556	0.3218	0.1412	0.0755	4.5 µM	4.5 µM	4.5 µM	0.7504	0.4413	0.4413	1907	841.5	0.441	1.037 and 0.9455	1.0637 and 0.9156	1.06 and 0.9161	fluorescence ratio, eIF1A ([4]; 1Ai conc. 2 uM): 1.104 and 0.9936; fluorescence ratio, eIF1A ([4]; 1Ai conc. 4 uM): 1.1 and 0.9264; fluorescence ratio, eIF1A ([4]; 1Ai conc. 8 uM): 1.007 and 0.92; fluorescence ratio, eIF1A ([4]; 1Ai conc. 16 uM): 0.939 and 0.9024; fluorescence ratio, eIF1A ([4]; 1Ai conc. 32 uM): 0.8822 and 0.9176; fluorescence ratio, eIF1A ([4]; 1Ai conc. 64 uM): 0.9562 and 1.05; fluorescence ratio, eIF1A ([4]; 1Ai conc. 256 uM): 1.305 and 1.351; WT eIF1A IC50 ([4]; fluorescence binding): No binding; IC50 concentration (µM), WT eIF1A ([4]; summary table, fluorescence binding assay): No binding; IC50 [5]: 20 µM; Reference vs IRF7 (Final data, Fig. 1E) [6]: 1.509; LONG (summary - All), normalized to DMSO [6]: 0.23 and 0.0442 and 0.78 and 0.63 and 1.12 and 0.61; SHORT (summary - All), normalized to DMSO [6]: 0.19 and 0.05 and 1.25 and 0.79 and 1.33 and 1.55; Long 5'UTR reporter luciferase activity, normalized to DMSO (=1), single replicates ([6]; compound at 20 µM, left data block (Long), source data of Fig 1C): 0.2324 and 0.04416 and 0.7839 and 0.6346 and 1.115 and 0.6102; average ( long vs short ratio) [6]: 0.663
